The values that follow come from US20260207621A1 (Vividion Therapeutics, Inc., priority 2022, published 2026).

The target of one test is T1, KEAP1 C151 (Homo sapiens, UniProt Q14145).
T1 construct: treating 500 μg of cell lysate generated from MDA-MB-468 breast cancer cells with DMSO or compound; endogenous in cells; host or cells: MDA-MB-468 breast cancer cell lysate
Nature of the test: Nrf2 TMT measurement: in vitro TE50 for KEAP1 C151 (IA-DTB competition, targeted TMT mass spectrometry) in MDA-MB-468 cell lysate. The settings on record: in vitro target engagement of KEAP1 C151, targeted TMT, read-out: KEAP1_C151 TE50. Format: binding. In short, it runs like this:
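Occupancy of KEAP1 C151 measured as loss of IA-DTB labeling (200 μM, 1 h, room temperature) after 1 h compound pre-treatment of MDA-MB-468 cell lysate.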

The test system of another test is Nrf2. Nature of the test: Nrf2 antagonism assay: ARE luciferase reporter in KYSE-70 cells. Format: cell-based. The settings on record: positive Imax corresponds to Nrf2 antagonism; for Emax: Homo sapiens, KYSE-70, KYSE-70 cells, read-out: KYSE70 Cellular ARE Luciferase Imax (%); for KYSE70 Cellular ARE Luciferase Imax (%): KYSE-70 cells. In short, it runs like this:
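Dose-response curves give IC50 and Imax, with positive Imax read as Nrf2 antagonism, i.e. reduced luciferase signal. Reporter cells are Nrf2-high KYSE-70 (Nrf2 W24C mutant) bearing ARE-controlled luciferase. Antagonists are proposed to act at KEAP1 C151, speeding Nrf2 degradation.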
A general note: Reporter assays use an easily measured gene product as a stand-in for the process of interest.

T1 sequence (Q14145 whole entry): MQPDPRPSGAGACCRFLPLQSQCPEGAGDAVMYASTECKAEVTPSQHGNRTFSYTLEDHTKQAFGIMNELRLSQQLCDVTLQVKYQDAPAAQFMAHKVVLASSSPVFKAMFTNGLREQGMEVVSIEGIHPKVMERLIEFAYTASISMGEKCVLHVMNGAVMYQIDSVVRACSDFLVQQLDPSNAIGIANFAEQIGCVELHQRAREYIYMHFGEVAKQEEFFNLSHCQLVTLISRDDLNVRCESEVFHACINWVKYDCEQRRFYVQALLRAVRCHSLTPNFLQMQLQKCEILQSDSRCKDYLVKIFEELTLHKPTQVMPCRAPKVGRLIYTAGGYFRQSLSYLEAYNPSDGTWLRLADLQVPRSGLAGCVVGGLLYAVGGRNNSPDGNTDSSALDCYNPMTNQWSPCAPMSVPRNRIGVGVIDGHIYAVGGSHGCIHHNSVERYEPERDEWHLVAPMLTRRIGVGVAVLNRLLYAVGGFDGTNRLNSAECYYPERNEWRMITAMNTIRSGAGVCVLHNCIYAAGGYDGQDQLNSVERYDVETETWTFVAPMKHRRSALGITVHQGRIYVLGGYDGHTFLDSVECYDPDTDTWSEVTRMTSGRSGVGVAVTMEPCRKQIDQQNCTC

Take `C=CC(=O)N1[C@H](C)COC[C@H]1c1cc(Cl)nc(-c2ccc(F)c(C(N)=O)c2)c1` (single isomer, unassigned) [Compound 139]: the IC50 at KEAP1 C151 came out at 74 nM. Further, in the test on Nrf2, the Emax was determined as 90%.
With `C=CC(=O)N1CCOCC12COc1c(-c3ccc(F)c(C(N)=O)c3)cc(Cl)cc12` (single isomer, unassigned) [Compound 143, 5-(4′-acryloyl-5-chloro-2H-spiro[benzofuran-3,3′-morpholin]-7-yl)-2-fluorobenzamide], the IC50 on KEAP1 C151 is 770 nM. The Emax in the test on Nrf2 worked out at 56%.
For the compound `C=CC(=O)N1[C@H](C)COC[C@H]1c1cc(Cl)nc(-c2ccnc(N)n2)c1` (single isomer, unassigned) [Compound 144], the IC50 on KEAP1 C151 is 83 nM. Further, the Emax with Nrf2 stood at 86%.
Take `C=CC(=O)N1[C@H](C)COC[C@H]1c1cc(Cl)nc(-c2ccnc(C(N)=O)c2)c1` (single isomer, unassigned) [Compound 145]: the IC50 at KEAP1 C151 amounted to 11 nM. In addition, the Emax in the test on Nrf2 came out at 90%.
As to `C=CC(=O)N1CCOC[C@H]1c1cc(Cl)cc(-c2ncncn2)c1` (single isomer, unassigned) [Compound 147], at KEAP1 C151, the IC50 was found to be 180 nM. Further, the Emax with Nrf2 was determined as 74%.
Take `C=CC(=O)N1CC(C)(C)OC[C@H]1c1cc(Cl)cc(-c2ccnc(N)n2)c1` (single isomer, unassigned) [Compound 148]: the IC50 at KEAP1 C151 turned out to be 51 nM. Also, the Emax with Nrf2 turned out to be 93%.
Consider `C=CC(=O)N1CC(C)(C)OC[C@H]1c1cc(Cl)cc(-c2cc(N)ncn2)c1` (single isomer, unassigned) [Compound 149], for which, at KEAP1 C151, the IC50 was found to be 15 nM. For the same compound, in the test with Nrf2, the Emax came out at 95%.
Turning to `C=CC(=O)N1CC(C)(C)OCC1c1cc(Cl)nc(-c2cc(N)ncn2)c1` (single isomer, unassigned) [Compound 150, 1-(5-(2-(6-aminopyrimidin-4-yl)-6-chloropyridin-4-yl)-2,2-dimethylmorpholino)prop-2-en-1-one], on KEAP1 C151, the IC50 was found to be 31 nM. Besides, in the test with Nrf2, the Emax was 97%.
As for `C=CC(=O)N1CC(C)(C)OC[C@H]1c1cc(Cl)cc(-c2nccc(N)n2)c1` (single isomer, unassigned) [Compound 155], the IC50 on KEAP1 C151 was 67 nM. Besides, the Emax with Nrf2 was determined as 94%.
Regarding `C=CC(=O)N1CC(C)(C)OC[C@H]1c1cc(Cl)cc(-c2ncc(N)cn2)c1` (single isomer, unassigned) [Compound 156], at KEAP1 C151, the IC50 amounted to 105 nM. Besides, in the test on Nrf2, the Emax stood at 94%.
For `C=CC(=O)N1[C@H](CO)COC[C@H]1c1cc(Cl)nc(-c2ccn3ccnc3c2)c1` (single isomer, unassigned) [Compound 157], the IC50 at KEAP1 C151 turned out to be 12 nM. The Emax in the test with Nrf2 is 81%.
Regarding `C=CC(=O)N1CCOCC12COc1c(-c3ccnc(N)n3)cc(Cl)cc12` (single isomer, unassigned) [Compound 158, 1-(7-(2-aminopyrimidin-4-yl)-5-chloro-2H-spiro[benzofuran-3,3′-morpholino]-4′-yl)prop-2-en-1-one], the IC50 at KEAP1 C151 amounted to 2720 nM. Further, in the test with Nrf2, the Emax was determined as 71%.
For `C=CC(=O)N1CC2(COC2)C1c1cc(Cl)cc(-c2ncnc(N)n2)c1` (single isomer, unassigned) [Compound 159, 1-(5-(3-(4-amino-1,3,5-triazin-2-yl)-5-chlorophenyl)-2-oxa-6-azaspiro[3,3]heptan-6-yl)prop-2-en-1-one], in that order: 320 nM and 63%.
For the compound `C=CC(=O)N1CC2(CC2)OCC1(C)c1cc(Cl)cc(-c2ccnc(N)n2)c1` (single isomer, unassigned) [Compound 161, 1-(6-(3-(2-aminopyrimidin-4-yl)-5-chlorophenyl)-6-methyl-4-oxa-7-azaspiro[2.5]octan-7-yl)prop-2-en-1-one], the IC50 at KEAP1 C151 amounted to 870 nM. In addition, in the test with Nrf2, the Emax was 83%.
With `C=CC(=O)N1CC2(CCCC2)OCC1(C)c1cc(Cl)cc(-c2ccnc(N)n2)c1` (single isomer, unassigned) [Compound 163, 1-(8-(3-(2-aminopyrimidin-4-yl)-5-chlorophenyl)-8-methyl-6-oxa-9-azaspiro[4.5]decan-9-yl)prop-2-en-1-one], the IC50 at KEAP1 C151 was found to be 610 nM. For the same compound, the Emax in the test with Nrf2 stood at 72%.
Consider `C=CC(=O)N1CC2(CCCC2)OCC1(C)c1cc(Cl)cc(-c2ncnc(N)n2)c1` (single isomer, unassigned) [Compound 164, 1-(8-(3-(4-amino-1,3,5-triazin-2-yl)-5-chlorophenyl)-8-methyl-6-oxa-9-azaspiro[4.5]decan-9-yl)prop-2-en-1-one], for which the IC50 on KEAP1 C151 was determined as 440 nM. Also, in the test with Nrf2, the Emax stood at 85%.
Take `C=CC(=O)N1CC2(CC2)OCC1(C)c1cc(Cl)cc(-c2ncc(F)cn2)c1` (single isomer, unassigned) [Compound 165, 1-(6-(3-chloro-5-(5-fluoropyrimidin-2-yl)phenyl)-6-methyl-4-oxa-7-azaspiro[2.5]octan-7-yl)prop-2-en-1-one]: at KEAP1 C151, the IC50 came to 330 nM. Moreover, the Emax with Nrf2 worked out at 53%.
As for `C=CC(=O)N1CC2(CCCC2)OCC1(C)c1cc(Cl)cc(-c2ncc(F)cn2)c1` (single isomer, unassigned) [Compound 166, 1-(8-(3-chloro-5-(5-fluoropyrimidin-2-yl)phenyl)-8-methyl-6-oxa-9-azaspiro[4.5]decan-9-yl)prop-2-en-1-one], the IC50 on KEAP1 C151 stood at 530 nM. Besides, in the test on Nrf2, the Emax amounted to 50%.
For `C=CC(=O)N1CC2(CC2)OCC1(C)c1cc(Cl)cc(-c2cc(N)ncn2)c1` (single isomer, unassigned) [Compound 167, 1-(6-(3-(6-aminopyrimidin-4-yl)-5-chlorophenyl)-6-methyl-4-oxa-7-azaspiro[2.5]octan-7-yl)prop-2-en-1-one], in that order: 2890 nM and 87%.
The like results for `C=CC(=O)N1CC2(COC2)C1c1cc(Cl)cc(-c2ccnc(N)n2)c1` (single isomer, unassigned) [Compound 168] were, in that order, 120 nM and 74%.
As to `C=CC(=O)N1[C@H](C(=O)N(C)C)COC[C@H]1c1cc(Cl)nc(-c2cc(N)ncn2)c1` (single isomer, unassigned) [Compound 169], the IC50 on KEAP1 C151 came out at 70 nM. The Emax with Nrf2 is 82%.
With `C=CC(=O)N1CC2(CCCC2)OCC1(C)c1cc(Cl)cc(-c2cc(N)ncn2)c1` (single isomer, unassigned) [Compound 170, 1-(8-(3-(6-aminopyrimidin-4-y1)-5-chlorophenyl)-8-methyl-6-oxa-9-azaspiro[4.5]decan-9-yl)prop-2-en-1-one], on KEAP1 C151, the IC50 amounted to 1670 nM. In the test with Nrf2, the Emax came out at 81%.
`C=CC(=O)N1CC2(CCCC2)OCC1(C)c1cc(Cl)cc(-c2nccc(N)n2)c1` (single isomer, unassigned) [Compound 171, 1-(8-(3-(4-aminopyrimidin-2-yl)-5-chlorophenyl)-8-methyl-6-oxa-9-azaspiro[4.5]decan-9-yl)prop-2-en-1-one]: at KEAP1 C151, the IC50 was 350 nM. Also, in the test with Nrf2, the Emax was found to be 72%.
Consider `C=CC(=O)N1[C@H](C(N)=O)COC[C@H]1c1cc(Cl)nc(-c2cc(N)ncn2)c1` (single isomer, unassigned) [Compound 172], for which the IC50 on KEAP1 C151 was determined as 20 nM. For the same compound, the Emax with Nrf2 was determined as 71%.
Turning to `C=CC(=O)N1[C@H](C(=O)NC)COC[C@H]1c1cc(Cl)nc(-c2cc(N)ncn2)c1` (single isomer, unassigned) [Compound 173], on KEAP1 C151, the IC50 was less than 6.4 nM. The Emax with Nrf2 worked out at 86%.
As for `C=CC(=O)N1CC2(CC2)OCC1c1cc(Cl)nc(-c2cc(N)ncn2)c1` (single isomer, unassigned) [Compound 174, 1-(6-(2-(6-aminopyrimidin-4-yl)-6-chloropyridin-4-yl)-4-oxa-7-azaspiro[2.5]octan-7-yl)prop-2-en-1-one], the IC50 on KEAP1 C151 came to 76 nM. For the same compound, in the test on Nrf2, the “KYSE70 Cellular ARE Luciferase Imax (%)” value stood at 51%.
With `C=CC(=O)N1CC2(CC2)OCC1c1cc(Cl)nc(-c2cc(N)ncn2)c1` (single isomer, unassigned) [Compound 175, 1-(6-(2-(6-aminopyrimidin-4-yl)-6-chloropyridin-4-yl)-4-oxa-7-azaspiro[2.5]octan-7-yl)prop-2-en-1-one], the IC50 on KEAP1 C151 is 32 nM. In addition, the “KYSE70 Cellular ARE Luciferase Imax (%)” value in the test on Nrf2 is recorded as 92%.
For the compound `C=CC(=O)N1CCOC[C@H]1c1cc(Cl)cc(-c2nc(N)[nH]c(=O)n2)c1` (single isomer, unassigned) [Compound 177], the IC50 on KEAP1 C151 stood at 150 nM. Further, in the test with Nrf2, the Emax came out at 87%.
On to `C=CC(=O)N1CCOC[C@H]1c1cc(Cl)cc(-c2nc(C)nc(N)n2)c1` (single isomer, unassigned) [Compound 178], for which the IC50 at KEAP1 C151 stood at 30 nM. Further, the Emax with Nrf2 was determined as 93%.
On to `C=CC(=O)N1C[C@@H](C)OC[C@H]1c1cc(Cl)cc(-c2ccc(F)c(C(N)=O)c2)c1` (single isomer, unassigned) [Compound 179], for which the IC50 on KEAP1 C151 turned out to be 190 nM. Moreover, the Emax with Nrf2 turned out to be 92%.
Take `C=CC(=O)N1[C@H](c2cc(Cl)nc(-c3ccc(F)c(C(N)=O)c3)c2)COC[C@H]1C(F)F` (single isomer, unassigned) [Compound 180]: on KEAP1 C151, the IC50 is 7.3 nM. Further, in the test on Nrf2, the Emax was 90%.
Take `C=CC(=O)N1C[C@H](C)OC[C@H]1c1cc(Cl)cc(-c2ccc(F)c(C(N)=O)c2)c1` (single isomer, unassigned) [Compound 182]: the IC50 on KEAP1 C151 came out at 16 nM. Moreover, in the test on Nrf2, the Emax was found to be 89%.
With `C=CC(=O)N1CCN(C(C)=O)C[C@H]1c1cc(Cl)cc(-c2nccc(N)n2)c1` (single isomer, unassigned) [Compound 183], the IC50 at KEAP1 C151 came to 27 nM. Further, the Emax in the test on Nrf2 was found to be 87%.
